Experimental data taken from PMC6105673 (Nature Communications, 2018).
No end group written: not given here. *: point of attachment. Biotin = O=C1N[C@H]2[C@H](CS[C@H]2CCCCC(=O)*)N1

How the values were obtained:
HIS6-PHD2 (181–426) = assay: In vitro hydroxylation assay (HIS6-PHD2 treatment, then IVTT pVHL pull-down); assay type: biochemical; settings: unmodified biotinylated peptides, 15 μg/mL HIS6-PHD2 (181–426), 1 h room temperature, then IVTT HA-VHL30 under stringent buffer
Procedure: Considering that prolyl hydroxylation is indispensable for HIF-2α binding to pVHL, we next examined the notion that the A530V mutation negatively influences hydroxylation of HIF-2α via PHD2, which would attenuate HIF-2α A530V binding affinity for pVHL. We conducted an in vitro hydroxylation assay utilizing unmodified peptides (amino acids 523–542) incubated with purified HIS6-PHD2 (catalytic core, amino acids 181–426).
Fig. 5 A subset of class 1 mutations specifically disrupts PHD2-mediated hydroxylation. a, b Biotinylated HIF-2α peptides (residues 523–542) were immobilized on streptavidin- agarose beads and incubated with HIS6-PHD2 for 1 h at room temperature prior to incubation with in vitro transcribed and translated (IVTT) pVHL. Streptavidin beads were pulled down (PD) and levels of HA-tagged pVHL were visualized via immmunoblotting (IB). c HEK293a cells were co-transfected with FLAG-VHL and HA-HIF-2α constructs. FLAG was immunoprecipitated (IP) and levels of HA-tagged HIF-2α were visualized via immunoblotting (IB). * denotes uncharacterized band
The in vitro pVHL-HIF-2α hydroxylation assay was performed according to a previously published protocol. 5 μg of biotinylated HIF-2α peptide was immobilized on streptavidin-agarose beads. Subsequently, peptides were incubated with 15 μg/mL HIS6-PHD2 (181–426) in 500 μL of 40 mM HEPES pH 7.4, 80 mM KCl, 5 mM a-ketoglutarate, 2 mM ascorbic acid, 100 μM FeCl2 tetrahydrate solution at room temperature for 1 h. FeCl2 was stored under anoxic conditions to prevent oxidation. Following hydroxylation, beads were washed 5x with EBC buffer and peptides were incubated with IVTT HA-VHL30 under the stringent buffer conditions described above.

[1] = molecular target: T1, pVHL-elongin B-elongin C (VBC) complex (Homo sapiens, UniProt P40337+Q15369+Q15370); assay: Biolayer interferometry kinetic analysis of VBC complex binding to biotinylated HIF-2α peptides; settings: for binding to VBC compared to WT (in words): HIF-2αOH peptides (523–541); for ka (association rate): purified VBC
T1 construct: a construct encoding N-terminal GST-tagged pVHL19 (54–213); GST (N, cleaved yes); made in house; host or cells: BL21(DE3) E. coli
Procedure: Absorbance was read at 450 nm. […] The data were analyzed based on a 1:1 binding model using the BLItz Pro software with the fitted curves shown as gray lines. […] Values represent mean of three experiments conducted with independently purified protein ± SEM. * denotes uncharacterized band
Multiple concentrations of purified VBC complex were diluted in kinetics buffer and allowed to associate with immobilized peptide over 120 s. Subsequently, the SA-BLI probe was immersed into kinetics buffer for 120 s to allow for dissociation. The data were analyzed, step corrected, reference corrected, and fit to a global 1:1 binding model. Kd, ka, and kd were calculated using the BLItz Pro software.

[2] = BLItz biolayer interferometry, peptide (523–541) immobilized, global 1:1 model, mean of three experiments ± SEM

T1 sequence (P40337 54-213): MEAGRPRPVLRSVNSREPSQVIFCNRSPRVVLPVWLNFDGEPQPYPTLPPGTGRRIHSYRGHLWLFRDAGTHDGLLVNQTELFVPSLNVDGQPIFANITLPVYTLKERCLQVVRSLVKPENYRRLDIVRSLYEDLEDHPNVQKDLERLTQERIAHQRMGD
T1 sequence (Q15370 whole entry partner): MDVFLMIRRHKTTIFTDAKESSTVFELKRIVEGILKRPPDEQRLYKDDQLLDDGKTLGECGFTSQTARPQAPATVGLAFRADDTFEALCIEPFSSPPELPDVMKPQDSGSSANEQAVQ
T1 sequence (Q15369 17-112 partner limits assumed): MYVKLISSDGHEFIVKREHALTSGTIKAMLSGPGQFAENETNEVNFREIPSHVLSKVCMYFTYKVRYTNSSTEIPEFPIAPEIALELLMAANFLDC

binding to VBC compared to WT (in words) ([1]; BLI) | ka (association rate) [1, 2] | ka (association rate) ([1]; BLI, 1:1 model) [M/s] | Molecule | binding to pVHL following HIS6-PHD2 treatment (immunoblot, in words) (HIS6-PHD2 (181–426))
– | 4.1 ± 0.4 x10^4 Ms^−1 | 41000 | CC[C@H](C)[C@H](NC(=O)[C@H](Cc1ccc(O)cc1)NC(=O)[C@@H]1C[C@@H](O)CN1C(=O)[C@H](C)NC(=O)[C@H](CC(C)C)NC(=O)[C@@H](NC(=O)[C@H](CCC(=O)O)NC(=O)[C@H](CC(C)C)NC(=O)[C@H](CC(=O)O)NC(=O)[C@H](CC(C)C)NC(=O)[C@@H](N)CCC(=O)O)[C@@H](C)O)C(=O)N1CCC[C@H]1C(=O)N[C@@H](CCSC)C(=O)N[C@@H](CC(=O)O)C(=O)NCC(=O)N[C@@H](CCC(=O)O)C(=O)N[C@@H](CC(=O)O)C(=O)N[C@@H](Cc1ccccc1)C(=O)N[C@@H](CCC(N)=O)C(N)=O [HIF-2αOH (wild-type)] | –
little defect | 3.1 ± 0.2 x10^4 Ms^−1 | – | CC[C@H](C)[C@H](NC(=O)[C@@H]1CCCN1C(=O)[C@@H](NC(=O)[C@H](Cc1ccc(O)cc1)NC(=O)[C@@H]1C[C@@H](O)CN1C(=O)[C@H](C)NC(=O)[C@H](CC(C)C)NC(=O)[C@@H](NC(=O)[C@H](CCC(=O)O)NC(=O)[C@H](CC(C)C)NC(=O)[C@H](CC(=O)O)NC(=O)[C@H](CC(C)C)NC(=O)[C@H](CCC(=O)O)NC(=O)CCCC[C@@H]1SC[C@@H]2NC(=O)N[C@@H]21)[C@@H](C)O)[C@@H](C)CC)C(=O)N[C@@H](CC(=O)O)C(=O)NCC(=O)N[C@@H](CCC(=O)O)C(=O)N[C@@H](CC(=O)O)C(=O)N[C@@H](Cc1ccccc1)C(=O)N[C@@H](CCC(N)=O)C(N)=O [HIF-2αOH (M535I)] | –
– | 4.9 ± 0.2 x10^4 Ms^−1 | – | CC[C@H](C)[C@H](NC(=O)[C@H](CS)NC(=O)[C@@H]1C[C@@H](O)CN1C(=O)[C@H](C)NC(=O)[C@H](CC(C)C)NC(=O)[C@@H](NC(=O)[C@H](CCC(=O)O)NC(=O)[C@H](CC(C)C)NC(=O)[C@H](CC(=O)O)NC(=O)[C@H](CC(C)C)NC(=O)[C@H](CCC(=O)O)NC(=O)CCCC[C@@H]1SC[C@@H]2NC(=O)N[C@@H]21)[C@@H](C)O)C(=O)N1CCC[C@H]1C(=O)N[C@@H](CCSC)C(=O)N[C@@H](CC(=O)O)C(=O)NCC(=O)N[C@@H](CCC(=O)O)C(=O)N[C@@H](CC(=O)O)C(=O)N[C@@H](Cc1ccccc1)C(=O)N[C@@H](CCC(N)=O)C(N)=O [HIF-2αOH (Y532C)] | –
– | 3.0 ± 0.2 x10^4 Ms^−1 | 30000 | CC[C@H](C)[C@H](NC(=O)[C@H](Cc1ccc(O)cc1)NC(=O)[C@@H]1C[C@@H](O)CN1C(=O)[C@H](C)NC(=O)[C@H](CC(C)C)NC(=O)[C@@H](NC(=O)[C@H](CCC(=O)O)NC(=O)[C@H](CC(C)C)NC(=O)[C@H](CC(=O)O)NC(=O)[C@H](CC(C)C)NC(=O)[C@H](CCC(=O)O)NC(=O)CCCC[C@@H]1SC[C@@H]2NC(=O)N[C@@H]21)[C@@H](C)O)C(=O)N1CCC[C@H]1C(=O)N[C@@H](CCSC)C(=O)N[C@@H](CC(=O)O)C(=O)N[C@@H](CCCNC(=N)N)C(=O)N[C@@H](CCC(=O)O)C(=O)N[C@@H](CC(=O)O)C(=O)N[C@@H](Cc1ccccc1)C(=O)N[C@@H](CCC(N)=O)C(N)=O [HIF-2αOH (G537R)] | –
– | 3.1 ± 0.3 x10^4 Ms^−1 | 31000 | CC[C@H](C)[C@H](NC(=O)[C@H](Cc1ccc(O)cc1)NC(=O)[C@@H]1C[C@@H](O)CN1C(=O)[C@H](C)NC(=O)[C@H](CC(C)C)NC(=O)[C@@H](NC(=O)[C@H](CCC(=O)O)NC(=O)[C@H](CC(C)C)NC(=O)[C@H](CC(=O)O)NC(=O)[C@H](CC(C)C)NC(=O)[C@H](CCC(=O)O)NC(=O)CCCC[C@@H]1SC[C@@H]2NC(=O)N[C@@H]21)[C@@H](C)O)C(=O)N1CCC[C@H]1C(=O)N[C@@H](CCSC)C(=O)N[C@@H](CC(=O)O)C(=O)NCC(=O)N[C@@H](CCC(=O)O)C(=O)N[C@@H](CC(=O)O)C(=O)N[C@@H](CC(C)C)C(=O)N[C@@H](CCC(N)=O)C(N)=O [HIF-2αOH (F540L)] | –

The next lines start with the molecule.

Molecule | binding to VBC compared to WT (in words) ([1]; BLI) | ka (association rate) [1, 2] | ka (association rate) ([1]; BLI, 1:1 model) [M/s] | binding to pVHL following HIS6-PHD2 treatment (immunoblot, in words) (HIS6-PHD2 (181–426))
Bio-HIF-2α(A530T): unmodified HIF-2α peptide (523–542) with A530T mutation (Biotin-ELDLETLTPYIPMDGEDFQL-NH2; SMILES CC[C@H](C)[C@H](NC(=O)[C@H](Cc1ccc(O)cc1)NC(=O)[C@@H]1CCCN1C(=O)[C@@H](NC(=O)[C@H](CC(C)C)NC(=O)[C@@H](NC(=O)[C@H](CCC(=O)O)NC(=O)[C@H](CC(C)C)NC(=O)[C@H](CC(=O)O)NC(=O)[C@H](CC(C)C)NC(=O)[C@H](CCC(=O)O)NC(=O)CCCC[C@@H]1SC[C@@H]2NC(=O)N[C@@H]21)[C@@H](C)O)[C@@H](C)O)C(=O)N1CCC[C@H]1C(=O)N[C@@H](CCSC)C(=O)N[C@@H](CC(=O)O)C(=O)NCC(=O)N[C@@H](CCC(=O)O)C(=O)N[C@@H](CC(=O)O)C(=O)N[C@@H](Cc1ccccc1)C(=O)N[C@@H](CCC(N)=O)C(=O)N[C@@H](CC(C)C)C(N)=O) | – | – | – | only minimally able to bind pVHL
CC[C@H](C)[C@H](NC(=O)[C@H](Cc1ccc(O)cc1)NC(=O)[C@@H]1C[C@@H](O)CN1C(=O)[C@H](C)NC(=O)[C@H](CC(C)C)NC(=O)[C@@H](NC(=O)[C@H](CCC(=O)O)NC(=O)[C@H](CC(C)C)NC(=O)[C@H](CC(=O)O)NC(=O)[C@H](CC(C)C)NC(=O)[C@H](CCC(=O)O)NC(=O)CCCC[C@@H]1SC[C@@H]2NC(=O)N[C@@H]21)[C@@H](C)O)C(=O)N1CCC[C@H]1C(=O)N[C@@H](CCSC)C(=O)N[C@@H](CC(=O)O)C(=O)NCC(=O)N[C@@H](CCC(=O)O)C(=O)N[C@@H](CCC(=O)O)C(=O)N[C@@H](Cc1ccccc1)C(=O)N[C@@H](CCC(N)=O)C(N)=O [HIF-2αOH (D539E)] | little defect | 3.6 ± 0.05 x10^4 Ms^−1 | – | –
HIF-2α (wild-type): biotinylated non-hydroxylated wild-type HIF-2α peptide, residues 523–541 | – | – | – | failed to bind pVHL
HIF-2α L542P peptide: unmodified HIF-2α peptide (523–542) with class 1 mutation L542P (Biotin-ELDLETLAPYIPMDGEDFQP-NH2; SMILES CC[C@H](C)[C@H](NC(=O)[C@H](Cc1ccc(O)cc1)NC(=O)[C@@H]1CCCN1C(=O)[C@H](C)NC(=O)[C@H](CC(C)C)NC(=O)[C@@H](NC(=O)[C@H](CCC(=O)O)NC(=O)[C@H](CC(C)C)NC(=O)[C@H](CC(=O)O)NC(=O)[C@H](CC(C)C)NC(=O)[C@H](CCC(=O)O)NC(=O)CCCC[C@@H]1SC[C@@H]2NC(=O)N[C@@H]21)[C@@H](C)O)C(=O)N1CCC[C@H]1C(=O)N[C@@H](CCSC)C(=O)N[C@@H](CC(=O)O)C(=O)NCC(=O)N[C@@H](CCC(=O)O)C(=O)N[C@@H](CC(=O)O)C(=O)N[C@@H](Cc1ccccc1)C(=O)N[C@@H](CCC(N)=O)C(=O)N1CCC[C@H]1C(N)=O) | – | – | – | failed to bind pVHL
CC[C@H](C)[C@H](NC(=O)[C@H](Cc1ccc(O)cc1)NC(=O)[C@@H]1C[C@@H](O)CN1C(=O)[C@@H](NC(=O)[C@H](CC(C)C)NC(=O)[C@@H](NC(=O)[C@H](CCC(=O)O)NC(=O)[C@H](CC(C)C)NC(=O)[C@H](CC(=O)O)NC(=O)[C@H](CC(C)C)NC(=O)[C@H](CCC(=O)O)NC(=O)CCCC[C@@H]1SC[C@@H]2NC(=O)N[C@@H]21)[C@@H](C)O)C(C)C)C(=O)N1CCC[C@H]1C(=O)N[C@@H](CCSC)C(=O)N[C@@H](CC(=O)O)C(=O)NCC(=O)N[C@@H](CCC(=O)O)C(=O)N[C@@H](CC(=O)O)C(=O)N[C@@H](Cc1ccccc1)C(=O)N[C@@H](CCC(N)=O)C(N)=O [HIF-2αOH (A530V)] | – | 2.7 ± 0.2 x10^4 Ms^−1 | – | –
Bio-HIF-2α(A530V): unmodified HIF-2α peptide (523–542) with A530V mutation (Biotin-ELDLETLVPYIPMDGEDFQL; UniProt Q99814 523-542, looked up, fragment A530V) | – | – | – | only minimally able to bind pVHL
CC[C@H](C)[C@H](NC(=O)[C@H](Cc1ccc(O)cc1)NC(=O)[C@@H]1C[C@@H](O)CN1C(=O)[C@@H](NC(=O)[C@H](CC(C)C)NC(=O)[C@@H](NC(=O)[C@H](CCC(=O)O)NC(=O)[C@H](CC(C)C)NC(=O)[C@H](CC(=O)O)NC(=O)[C@H](CC(C)C)NC(=O)[C@H](CCC(=O)O)NC(=O)CCCC[C@@H]1SC[C@@H]2NC(=O)N[C@@H]21)[C@@H](C)O)[C@@H](C)O)C(=O)N1CCC[C@H]1C(=O)N[C@@H](CCSC)C(=O)N[C@@H](CC(=O)O)C(=O)NCC(=O)N[C@@H](CCC(=O)O)C(=O)N[C@@H](CC(=O)O)C(=O)N[C@@H](Cc1ccccc1)C(=O)N[C@@H](CCC(N)=O)C(N)=O [HIF-2αOH (A530T)] | – | 3.4 ± 0.3 x10^4 Ms^−1 | – | –
